Assay results reported in patent US10682366B2, “Method for enhancing immunity using ginsenoside F1 as an active ingredient” (INTELLIGENT SYNTHETIC BIOLOGY CENTER, priority 2016, dated 2020).

Key:
[1] = system: natural killer cells co-cultured with K562 cell or 721.221 cell; assay: Cell-killing activity of natural killer cells (cytolysis of europium-labeled target cells); format: cell-based, human; details: pretreated NK cells; NK:target ratio 5:1, 10:1, 20:1, 40:1; K562 or 721.221; compared to DMSO-treated group
Protocol: In order to examine whether ginsenoside F1 increases cell-killing activity of natural killer cells, cytolysis of target cells was measured.
(§1) In detail, peripheral blood mononuclear cells (PBMCs) separated from the blood and purified natural killer cells were pretreated with ginsenoside F1 or Rg3, and then co-cultured with K562 cell or 721.221 cell which is an europium-labeled target cells. The natural killer cell and the target cell were mixed at a ratio of 5:1, 10:1, 20:1, and 40:1, followed by culture. Meanwhile, intensity of fluorescence emitted from the target cell is proportional to cell-killing activity of natural killer cell. Therefore, a culture medium was separated by centrifugation, and then fluorescence emitted by cell lysis of the target cell was measured by using a microplate reader.

[2] = system: primary natural killer cells; assay: Cell-killing activity of primary natural killer cells (cytolysis of target cells); format: cell-based, human; details: for cytolysis of target cells: compared to DMSO-treated group
From the text: as §1
Blood (50 ml) of a healthy donor was collected in a vacutainer cell preparation tube (BD Biosciences) containing sodium heparin. Thereafter, the blood was percoll-gradient centrifuged to recover a buffy coat which is a white thin layer consisted of platelets and white blood cells. Peripheral blood mononuclear cells obtained by washing this buffy coat with PBS were separated by using a human NK cell negative selection kit (Miltenyl Biotech). Part of the separated natural killer cells and a FACS buffer were mixed, and then purity of natural killer cells (CD3^−/CD16^+) and the number and ratio of CD56^dim/CD16^+, CD56^bright/CD16^−, and CD56^bright/CD16^+ were measured by using a FACS machine and fluorochrome-conjugated anti-CD3, anti-CD56, and […] antibodies. Natural killer cells with purity of 95% or more were used in experiments.
The primary natural killer cells separated by the method of Example 3-1 were used to examine whether ginsenoside F1 increases cell-killing activity of primary natural killer cells, in the same manner as in Example 2.

[3] = system: peripheral blood mononuclear cells (PBMCs) and natural killer cells; assay: Degranulation activity of innate immune cells (CD107a expression by FACS); format: cell-based, human; details: cells pretreated with ginsenoside, co-cultured with K562 or 721.221 target cell; compared to DMSO (vehicle)-treated group
Protocol: Effect of ginsenoside F1 on degranulation activity of innate immune cells was measured by fluorescence activated cell sorter (FACS).
In detail, peripheral blood mononuclear cells (PBMCs) separated from the blood and purified natural killer cells were pretreated with ginsenoside, and then co-cultured with K562 cell or 721.221 cell which is a target cell of the above cells, respectively. Thereafter, the surfaces of the peripheral blood mononuclear cells and the natural killer cells were stained with fluorochrome-conjugated anti-CD3, anti-CD56, and anti-CD107a antibodies. Meanwhile, degranulation activity of peripheral blood mononuclear cells or natural killer cells is proportional to CD107a expression on cell surface, as shown in FIG. 1. Therefore, CD107a expression levels of the peripheral blood mononuclear cells and the natural killer cells were measured by a FACS machine.

[4] = system: primary natural killer cells; assay: Calcium flux assay by confocal live cell imaging; format: cell-based, human; details: activated with NKG2D antibody and 2B4 antibody; compared to ginsenoside Rg1
Protocol: To investigate a natural killer cell-based immune enhancement mechanism of ginsenoside F1 calcium flux assay of individual cells was performed by live cell imaging using confocal microscopy.
In detail, primary natural killer cells were purified (>97%) by the method of Example 3-1, and then treated with ginsenoside F1 or Rg1. For 30 seconds, a basal calcium level was measured, and then natural killer cells were activated using a combination of NKG2D antibody and 2B4 antibody, followed by calcium flux assay by confocal live cell imaging.

[5] = system: natural killer cell-sensitive RMA-S (MHC class I-) cells; assay: In vivo natural killer cell-based selective reduction of RMA-S (RMA-S/RMA target cell system); details: mice pretreated at 25 mg/kg; for removability (selective reduction rate of RMA-S): RMA-S/RMA mixture intraperitoneal, 8 hours later, FACS
Protocol: To evaluate effectiveness of in vivo cell-killing activity of ginsenoside F1, natural killer cell-sensitive RMA-S (MHC class I^−) and natural killer cell-resistant RMA (MHC class I^+) target cell systems were used.
In detail, mice were pretreated with ginsenoside F1 at a dose of 25 mg/kg. A mixture of RMA-S/RMA cells, each cell labeled with different fluorescence intensity, was administered into the mice via intraperitoneal injection. 8 hours later, a selective reduction rate of RMA-S by natural killer cells was analyzed by FACS.

[6] = system: primary natural killer cells; assay: Analysis of cell-killing factors (perforin, granzyme B) by quantitative RT-PCR; format: cell-based, human; details: 12 hours after treatment
Protocol: To investigate a cell-killing activation mechanism of natural killer cells by ginsenoside F1, primary natural killer cells purified by the method of Example 3-1 were treated with ginsenoside F1 or Rg1. 12 hours later, total RNA was isolated, and then expressions of perforin and granzyme B which are representative cell-killing factors of natural killer cells were analyzed by quantitative RT-PCR.
In detail, total RNA was isolated from natural killer cells using a TRIzol reagent, and cDNA was synthesized using primers of unknown sequences, which were manufactured by Toyobo, and reverse transcriptase. Thereafter, quantitative RT-PCR was performed using primers of the following Table 1 and SYBR PCR Master Mix (Toyobo).
PCR conditions are the same as in the following Table 2.

| SMILES | cytolysis of target cells [1] | cytolysis of target cells [2] | CD107a expression [3] | calcium flux of natural killer cells [4] | RMA-S reduction effect relative to non-treated group ([5]; 8 hours) [times] | removability (selective reduction rate of RMA-S) [5] | expression level of granzyme B compared to ginsenoside Rg1-treated group [6] | expression level of perforin compared to ginsenoside Rg1-treated group [6] | expression level of granzyme B ([6]; compared to non-treated group) | expression level of perforin ([6]; compared to non-treated group) | cytolysis of target cells compared to the ginsenoside Rg3 and Rg1-treated group [2] |
| --- | --- | --- | --- | --- | --- | --- | --- | --- | --- | --- | --- |
| CC(C)=CCC[C@](C)(O)[C@H]1CC[C@]2(C)[C@@H]1[C@H](O)C[C@@H]1[C@@]3(C)CC[C@H](O[C@@H]4O[C@H](CO)[C@@H](O)[C@H](O)[C@H]4O[C@@H]4O[C@H](CO)[C@@H](O)[C@H](O)[C@H]4O)C(C)(C)[C@@H]3CC[C@]12C [ginsenoside Rg3, reference compound] | high cytolysis of target cells | high cytolysis of target cells | increased |  |  |  |  |  |  |  |  |
| CC(C)=CCC[C@](C)(O[C@@H]1O[C@H](CO)[C@@H](O)[C@H](O)[C@H]1O)[C@H]1CC[C@]2(C)[C@@H]1[C@H](O)C[C@@H]1[C@@]3(C)CC[C@H](O)C(C)(C)[C@@H]3[C@@H](O)C[C@]12C [ginsenoside F1] | high cytolysis of target cells | high cytolysis of target cells | highest CD107a expression | more effectively promotes calcium flux | 2 | ≥ 70% | high expression level of granzyme B | high expression level of perforin | about 1.5 times | about 2 times | remarkably excellent cytolysis |
| CC(C)=CCC[C@](C)(O[C@@H]1O[C@H](CO)[C@@H](O)[C@H](O)[C@H]1O)[C@H]1CC[C@]2(C)[C@@H]1[C@H](O)C[C@@H]1[C@@]3(C)CC[C@H](O)C(C)(C)[C@@H]3[C@@H](O[C@@H]3O[C@H](CO)[C@@H](O)[C@H](O)[C@H]3O)C[C@]12C [ginsenoside Rg1, reference compound] |  | high cytolysis of target cells |  |  |  | about 52% |  |  |  |  |  |
